Assay results published in PMC9861386, “N-Heterocyclic Carbene-Iridium Complexes as Photosensitizers for In Vitro Photodynamic Therapy to Trigger Non-Apoptotic Cell Death in Cancer Cells” (Molecules, 2023).
Where two headings read alike, the source gives them in different places. Where a SMILES comes first, the peptide text is derived from it. The star is where a group is joined. Cbz = O=C(OCc1ccccc1)*; CH2F = FC*

How the values were obtained:
NIH3T3 = assay: MTT cytotoxicity, 48 h; assay type: cell-based, murine
Protocol: (§1) The in vitro cytotoxicity of iridium(III) complexes 4a–4g was first evaluated against cancer cell lines PC-3 (human prostate) and T24 (human bladder) and the non-cancerous NIH-3T3 cell line (murine fibroblasts) using colorimetric MTT tests after 48 h of treatment. The dimeric iridium precursor [IrCl(ppy)2]2 was used as reference and the results are summarized in Table S1 (Supplementary Materials) in the supporting information file. […] The complexes were also evaluated for their cytotoxicity towards healthy NIH-3T3 cells, giving access to the selectivity index (SI). […] No linear correlation between lipophilicity and anti-cancer activity was found for the iridium(III) complexes 4a–4g. For the following biological studies, we focused on the C1 series.
(§2) Table S1. Cytotoxic activity of iridium(III) NHC complexes 4a−4g expressed as GI50 (μM) values towards selected cancer and normal cell lines as determined by MTT assay (48 h).a Complex PC-3 T24 NIH3T3 SI (PC-3) SI (T24) […]
(§3) a GI50 values correspond to the concentration of complexes causing 50 % inhibition of cell growth.
(§4) Data were obtained from three independent experiments.
(§5) The cytotoxic effects of the NHC precursors, the imidazolium salts, which represents the potential hydrolysis and/or degradation products of the complexes, have been published before [SI-1, SI-2]. […]

NIH-3T3 fibroblasts = assay: MTT cell viability, 72 h, dark or 458 nm irradiation; assay type: cell-based, murine; details: for GI50: 72 h, MTT
Protocol: (§6) For all biology experiments, the compounds were solubilized in DMSO to reach a final fixed concentration equal to 0.1% v/v to avoid cytotoxicity caused by DMSO [89]. The results are normalized to controls (0.1% v/v DMSO). Depending on the cell type, approximatively 1000 to 10,000 cells/cm^2 were seeded in 48-well plates for MTT, ATP and GSH assays and 60 mm Petri dishes for Western blots. Cells were allowed to attach overnight and then incubated for 4 h with the different complexes (in the dark), then irradiated for 10 min, followed by an incubation in the dark up to 72 h.
(§7) Irradiation was conducted using an in-house device: a series of blue light LEDs selected according to the absorption spectra of the compounds at a 458 nm wavelength with an emitted power of 9.6 watts. The absorbed energy, or irradiance, was measured at 458 nm with a Thorlabs Optical Power Meter PM100A at 5 and 10 cm distance between the cell layer and the light source and expressed as mW/cm^2.
(§8) A tetrazolium-based MTT reagent (3-(4,5-dimethylthiazol-2-yl)-2,5-diphenyltetrazolium bromide) was used to determine cell viability, as previously described. After 72 h of treatment at 37 °C and 5% CO2, cells were incubated with 25 μL MTT solution (5 mg/mL; Sigma-Aldrich) for 4 h. After solubilization with 500 μL of lysis buffer (DMSO), formazan was quantified by spectrophotometry with a microplate reader at 570 nm absorbance (ClarioSTAR, BMG LabTech, Champigny-sur-Marne, France). GI50 values corresponding to the concentration that caused 50% inhibition of cell proliferation were calculated from dose–response curves obtained by nonlinear regression analysis. All results were calculated from data obtained in at least three independent experiments.

[1] = tested on: PC-3 prostate cancer cells; assay: as above; assay type: cell-based, human; details: for GI50: 72 h, MTT
Protocol: as §6, §7, §8

T24 bladder cancer cells = assay: as above; assay type: cell-based, human; details: for GI50: 72 h, MTT
Protocol: as §6, §7, §8

PC-3 = assay: MTT cytotoxicity, 48 h; assay type: cell-based, human; details: for GI50: MTT; for SI (PC-3): NIH3T3 vs PC-3
Protocol: as §1, §2, §3, §4, §5

T24 = assay: MTT cytotoxicity, 48 h; assay type: cell-based, human; details: for GI50: MTT; for SI (T24): NIH3T3 vs T24
Protocol: as §1, §2, §3, §4, §5

MCF7/FasR cells = assay: Cell death with or without pan-caspase inhibitor z-VAD-fmk, MTT; assay type: cell-based, human; details: 10 µM z-VAD-fmk, MCF7/FasR and MCF7/FasR/Bcl-xL, 72 h
Excerpt: To determine the mechanism of cell death, we used MCF7 cells transfected to express the human Fas receptor (FasR) or doubly transfected to express the human Fas receptor and human Bcl-xL [75]. Since MCF7 cells express the TNF receptor endogenously, this allowed the study of both Fas- and TNFα-mediated apoptosis in the same cell model to assess whether cell death was dependent on the Bcl-2 family of mitochondrial proteins such as Bcl-xL. […] This is consistent with findings that death receptors such as FasR and TNFR can mediate apoptosis through both the extrinsic pathway (mitochondria-independent by directly activating executioner caspases via upstream caspase-8) and the intrinsic (mitochondrial) pathway controlled by the Bcl-2 family of proteins.
We next evaluated the effect of the pan-caspase inhibitor z-VAD-fmk on caspase signaling. As expected, the treatment with z-VAD-fmk rendered MCF7/FasR cells resistant to TNFα-induced PARP and caspase-7 processing (Figure 14A) and to the loss of cell viability (Figure 14B).
as §8, with “GI50 values corresponding to the concentration that caused 50% inhibition of cell proliferation were calculated from dose–response curves obtained by nonlinear regression analysis.” left out
Figure 11 Bcl-xL and z-VAD-fmk inhibited by Fas- or TNFα-induced cell death in MCF7 cells. […] Cell death was assessed by MTT assay. […]
Figure 14 Evaluation of apoptotic biomarkers. […] (B) Cell viability was evaluated in duplicate samples. Data are expressed as percent (%) of untreated cells and are the means of 3 independent experiments (***, p < 0.0001, NS, not significant).

[2] = Octanol–water partition coefficient, shake-flask method; assay type: physicochemical; details: n-octanol/water, UV absorbance 260 nm
Protocol: Lipophilicities of all complexes have been measured by the classical shake-flask method, using UV absorption. The Log p values range from -0.063 to 0.861 in increasing order –0.063 (4a), 0.035 (4d), 0.519 (4f), 0.581 (4c), 0.842 (4b), 0.847 (4e) and 0.861 (4g).
The octanol–water partition coefficients (P) of 4a to 4g were determined using a shake-flask method. Water (100 mL, distilled after milli-Q purification) and n-octanol (100 mL, Sigma-Aldrich, St. Louis, MO, USA, ACS spectrophotometric grade, ≥99%) were shaken together for 24 h to allow saturation of both phases. Stock solutions of the […] compounds (50 μM) were prepared in the aqueous phase and aliquots (1 mL) of each of these stock solutions were then added to an equal volume of the n-octanol phase. The resultant biphasic solutions were mixed for 1 h and then centrifuged (3000× g, 5 min) (Eppendorf Centrifuges 5415R and 5804R) to separate the phases. The concentrations of the complexes in the organic and aqueous phases were then determined using UV absorbance spectroscopy (260 nm). Log P was defined as the logarithm of the ratio of the concentrations of the studied complex in the organic and aqueous phases (Log P = Log {[Ir(org)]/[Ir(aq)]}; values reported are the means of at least two separate determinations).

[3] = Photophysical measurements (emission, quantum yield, lifetime) in CH2Cl2; assay type: physicochemical; details: CH2Cl2, 298 K, references POPOP and quinine sulfate
Excerpt: All complexes have been photophysically investigated at standard pressure in CH2Cl2 at 298 K. The absorption spectra of complexes 4a to 4g in CH2Cl2 at 298 K are shown in Figure 7. The strong absorption bands below 300 nm correspond to spin-allowed ^1π→π* electronic ligand-centered (LC) transitions. The structureless bands at 300–360 nm are attributed to ppy-to-ppy ^1π→π* […] charge transfer (LLCT) and Ir-to-ppy metal-to-ligand charge transfer (MLCT) transitions. The lowest-lying bands in the visible region can be assigned to both singlet and triplet MLCT transitions. No significant difference in the absorption spectra of complexes 4a to 4g can be found in the CH2Cl2 solution.
The luminescence spectra of complexes 4a to 4f in CH2Cl2 at 298 K are shown in Figure 8 and their photophysical data are summarized in Table 1.
The relative emission quantum yields (ΦPL) of these complexes in CH2Cl2 at room temperature were measured by using POPOP and quinine sulfate in 1 N H2SO4 as standard references (ΦPL = 97% and ΦPL = 54%, respectively). […] In addition, the excited-state lifetimes of complexes 4a to 4d are in the range of 166.4–190.7 ns, indicating the phosphorescence nature of the emissions.
UV/Vis absorption spectra were recorded at RT on solutions contained in quartz cuvettes (optical pathlength 1 cm, Hellma® (HELLMA, Müllheim, Germany)) with a PerkinElmer® (PerkinElmer, Waltham, MA, USA) UV/VIS/NIR spectrophotometer Lambda 950 and a PerkinElmer® detector UV/VIS/NIR Accessory 2D Detector Module.
Fluorescence and phosphorescence emission spectra were obtained with a HORIBA JOBIN YVON (Bensheim, Germany) fluromax-4 and spectrofluorometer.
Luminescence quantum yields were measured according to the method of Demas and Crosby, on solution samples at RT. The quantum yield is defined as: ΦS=ΦR*As/Ar* ηs/ηr^2^2 where ΦS is the quantum yield of the sample, ΦR is the known quantum yield of the reference standard at the area subtended by the emission band (on a wavelength scale) and η is the refractive index of the solvent used for the preparation of the solution. As (related to the sample) and Ar (related to the reference) must be excitation wavelength. Different standards were selected depending on the spectral region of the interest: POPOP in hexane (Φ = 97%) and QUININNE in water (Φ = 54%).
Fluorescence lifetime measurements were performed by an Edinburgh FLS920 spectrofluorometer equipped with a TCC900 card for data acquisition in time-correlated single-photon counting experiments (0.5 ns time resolution) with a D2 lamp and an LDH-P-C-405 pulsed diode laser. The estimated experimental error was 2 nm on the band maximum (5% on the lifetime, 10% on the fluorescence quantum yield).

[4] = GI50 non-irradiated / GI50 irradiated

Structure (SMILES) | GI50 (NIH3T3) [µM] | GI50 (PC-3) [µM] | SI (PC-3) (PC-3) | GI50 (T24) [µM] | SI (T24) (T24) | Log P [2] | ΦPL emission quantum yield [3] [%] | further results
c1cc[c]2c(c1)-c1cccc[n+]1[Ir-3]213([Cl+][Ir-3]24([Cl+]1)([c]1ccccc1-c1cccc[n+]12)[c]1ccccc1-c1cccc[n+]14)[c]1ccccc1-c1cccc[n+]13 [[IrCl(ppy)2]2, reference compound] | > 20 | > 20 | > 1 | 14.8 | > 1.4 |  |  | GI50 (NIH-3T3 fibroblasts; 458 nm irradiation 10 min, read-out: GI50 NIH-3T3 Blue): 14 µM; PI NIH-3T3 (NIH-3T3 fibroblasts; [4]): 2.9; GI50 (NIH-3T3 fibroblasts; dark, read-out: GI50 NIH-3T3 Dark): 40 µM; GI50 ([1]; 458 nm irradiation 10 min, read-out: GI50 PC-3 Blue): 14 µM; PI PC-3 [1, 4]: 2.1; SI vs NIH, PC-3 Blue ([1]; blue light, GI50 NIH-3T3 / GI50 PC-3): 1.0; GI50 ([1]; dark, read-out: GI50 PC-3 Dark): 29 µM; SI vs NIH, PC-3 Dark ([1]; dark, GI50 NIH-3T3 / GI50 PC-3): 1.4; GI50 (T24 bladder cancer cells; 458 nm irradiation 10 min, read-out: GI50 T24 Blue): 22 µM; PI T24 (T24 bladder cancer cells; [4]): 1.2; SI vs NIH, T24 Blue (T24 bladder cancer cells; blue light, GI50 NIH-3T3 / GI50 T24): 0.7; GI50 (T24 bladder cancer cells; dark, read-out: GI50 T24 Dark): 26 µM; SI vs NIH, T24 Dark (T24 bladder cancer cells; dark, GI50 NIH-3T3 / GI50 T24): 1.5
COC(=O)C[C@H](NC(=O)[C@H](C)NC(=O)[C@@H](NC(=O)OCc1ccccc1)C(C)C)C(=O)CF [z-VAD-fmk, reference compound] (Cbz-Val-Ala-Asp(OMe)-CH2F) |  |  |  |  |  |  |  | effect on cell death induced by Fas antibody and TNFα (MCF7/FasR cells): completely abolished cell death
F[P-](F)(F)(F)(F)F.c1ccc(C[n+]2ccn3[c]2[Ir-3]24([c]5ccccc5-c5cccc[n+]52)([c]2ccccc2-c2cccc[n+]24)[c]2n(cc[n+]2Cc2ccccc2)CC3)cc1 [Complex 4e] | 2.5 | 0.25 | 10.0 | 0.29 | 8.6 | 0.847 | 0.2 | 
CC(C)C[n+]1ccn2[c]1[Ir-3]13([c]4ccccc4-c4cccc[n+]41)([c]1ccccc1-c1cccc[n+]13)[c]1n(cc[n+]1CC(C)C)CC2.F[P-](F)(F)(F)(F)F [Complex 4f] | 4.1 | 0.91 | 4.5 | 0.91 | 4.5 | 0.519 | 0.2 | 
